The source of these data is US20230089073A1 (Carmot Therapeutics, Inc., priority 2021, published 2023).

In the assay the target is T1, human GLP-1 receptor (Homo sapiens, UniProt P43220).
T1 construct: expressed in transfected cells
T1 sequence (P43220 24-463): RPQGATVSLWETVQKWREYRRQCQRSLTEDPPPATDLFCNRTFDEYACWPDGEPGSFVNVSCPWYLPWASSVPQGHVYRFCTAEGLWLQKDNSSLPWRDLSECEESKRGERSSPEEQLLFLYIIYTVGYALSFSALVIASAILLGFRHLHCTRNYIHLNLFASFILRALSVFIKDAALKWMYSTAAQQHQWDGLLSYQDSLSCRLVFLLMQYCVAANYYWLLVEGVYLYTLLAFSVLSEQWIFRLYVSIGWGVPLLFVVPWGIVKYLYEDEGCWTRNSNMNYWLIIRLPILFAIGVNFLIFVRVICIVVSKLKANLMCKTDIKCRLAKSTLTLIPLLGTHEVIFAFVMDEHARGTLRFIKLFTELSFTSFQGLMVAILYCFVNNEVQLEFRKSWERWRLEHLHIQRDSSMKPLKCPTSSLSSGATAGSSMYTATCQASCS
The experiment in a line: GLP-1R cAMP Assay. Format: cell-based. The following applies: cAMP accumulation in CHO cells stably overexpressing the human GLP-1 receptor; 30 min treatment; HitHunter cAMP kit; read-out: EC50. In outline: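 Luminescent enzyme-complementation detection of cAMP, read after cell lysis and overnight incubation, with dose-response curve fitting. Stimulation lasted 30 min, using 20-point triplicate dosing on CHO cells (10,000 per well) stably overexpressing human GLP-1R.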
For `CCn1cncc1Cn1c(CN2CCC(Cc3cccc(COc4ccc(C)cc4Cl)n3)CC2)nc2ccc(C(=O)O)cc21` [Compound 120, 2-{[4-({6-[(2-chloro-4-methylphenoxy)methyl]pyridin-2-yl}methyl)piperidin-1-yl]methyl}-1-[(1-ethyl-1H-imidazol-5-yl)methyl]-1H-1,3-benzodiazole-6-carboxylic acid], the EC50 is less than 50 nM.
Then `CN(c1cccc(C(=O)N2CCN(Cc3nc4ccc(C(=O)O)cc4n3C[C@@H]3CCO3)CC2)c1)c1ccc(C2CC2)cc1Cl` [Compound 122, 2-[(4-{3-[(2-chloro-4-cyclopropylphenyl)(methyl)amino]benzoyl}piperazin-1-yl)methyl]-1-{[(2S)-oxetan-2-yl]methyl}-1H-1,3-benzodiazole-6-carboxylic acid], with less than 50 nM.
Then `Cc1ccc(OCc2ccc(F)c(CC3CCN(Cc4nc5ccc(C(=O)O)cc5n4C[C@@H]4CCO4)CC3)n2)c(Cl)c1` [Compound 123, 2-{[4-({6-[(2-chloro-4-methylphenoxy)methyl]-3-fluoropyridin-2-yl}methyl)piperidin-1-yl]methyl}-1-{[(2S)-oxetan-2-yl]methyl}-1H-1,3-benzodiazole-6-carboxylic acid], with less than 50 nM; and `CCn1cncc1Cn1c(CN2CCC(Cc3cnc(COc4ccc(Cl)cc4Cl)o3)CC2)nc2ccc(C(=O)O)cc21` [Compound 124, 2-{[4-({2-[(2,4-dichlorophenoxy)methyl]-1,3-oxazol-5-yl}methyl)piperidin-1-yl]methyl}-1-[(1-ethyl-1H-imidazol-5-yl)methyl]-1H-1,3-benzodiazole-6-carboxylic acid], with less than 50 nM.
Then `CCn1cncc1Cn1c(CN2CCC(Cc3cnc(COc4ccc(Cl)cc4Cl)o3)CC2)nc2ccc(C(=O)O)nc21` [Compound 125, 2-{[4-({2-[(2,4-dichlorophenoxy)methyl]-1,3-oxazol-5-yl}methyl)piperidin-1-yl]methyl}-3-[(1-ethyl-1H-imidazol-5-yl)methyl]-3H-imidazol[4,5-b]pyridine-5-carboxylic acid], with less than 50 nM; and `O=C(O)c1ccc2nc(CN3CCC(Cc4cc(F)cc(COc5ccc(Cl)cc5Cl)c4)CC3)n(C[C@@H]3CCO3)c2c1` [Compound 126, 2-{[4-({3-[(2,4-dichlorophenoxy)methyl]-5-fluorophenyl}methyl)piperidin-1-yl]methyl}-1-{[(2S)-oxetan-2-yl]methyl}-1H-1,3-benzodiazole-6-carboxylic acid], with 50 to 500 nM.
As for `O=C(O)c1ccc2nc(CN3CCC(Cc4cnc(COc5ccc(Cl)cc5Cl)o4)CC3)n(C[C@@H]3CCO3)c2n1` [Compound 129, 2-{[4-({2-[(2,4-dichlorophenoxy)methyl]-1,3-oxazol-5-yl}methyl)piperidin-1-yl]methyl}-3-{[(2S)-oxetan-2-yl]methyl}-3H-imidazo[4,5-b]pyridine-5-carboxylic acid], the EC50 was less than 50 nM.
Then `CCn1cncc1Cn1c(CN2CCC(Cc3cc(F)cc(COc4ccc(Cl)cc4Cl)c3)CC2)nc2ccc(C(=O)O)cc21` [Compound 133, 2-{[4-({3-[(2,4-dichlorophenoxy)methyl]-5-fluorophenyl}methyl)piperidin-1-yl]methyl}-1-[(1-ethyl-1H-imidazol-5-yl)methyl]-1H-1,3-benzodiazole-6-carboxylic acid], with less than 50 nM; and `O=C(O)c1ccc2nc(CN3CCC(Cc4cccc(COc5ccc(Cl)cc5Cl)c4F)CC3)n(C[C@@H]3CCO3)c2c1` [Compound 135, 2-{[4-({3-[(2,4-dichlorophenoxy)methyl]-2-fluorophenyl}methyl)piperidin-1-yl]methyl}-1-{[(2S)-oxetan-2-yl]methyl}-1H-1,3-benzodiazole-6-carboxylic acid], with 50 to 500 nM; and `CCn1cncc1Cn1c(CN2CCC(Cc3cc(COc4ccc(Cl)cc4Cl)ccc3F)CC2)nc2ccc(C(=O)O)cc21` [Compound 137, 2-{[4-({5-[(2,4-dichlorophenoxy)methyl]-2-fluorophenyl}methyl)piperidin-1-yl]methyl}-1-[(1-ethyl-1H-imidazol-5-yl)methyl]-1H-1,3-benzodiazole-6-carboxylic acid], with less than 50 nM.
In the case of `CCn1cncc1Cn1c(CN2CCC(Cc3cnc(COc4ccc(Cl)cc4C#N)o3)CC2)nc2ccc(C(=O)O)cc21` [Compound 138, 2-{[4-({2-[(4-chloro-2-cyanophenoxy)methyl]-1,3-oxazol-5-yl}methyl)piperidin-1-yl]methyl}-1-[(1-ethyl-1H-imidazol-5-yl)methyl]-1H-1,3-benzodiazole-6-carboxylic acid], the EC50 was less than 50 nM.
Then `CCn1cncc1Cn1c(CN2CCC(Cc3cncc(COc4ccc(Cl)cc4Cl)c3)CC2)nc2ccc(C(=O)O)cc21` [Compound 139, 2-{[4-({5-[(2,4-dichlorophenoxy)methyl]pyridin-3-yl}methyl)piperidin-1-yl]methyl}-1-[(1-ethyl-1H-imidazol-5-yl)methyl]-1H-1,3-benzodiazole-6-carboxylic acid], with less than 50 nM; and `CCn1cncc1Cn1c(CN2CCC(Cc3cccc(COc4ccc(Cl)cc4Cl)n3)CC2)nc2ccc(C(=O)O)cc21` [Compound 140, 2-{[4-({6-[(2,4-dichlorophenoxy)methyl]pyridin-2-yl}methyl)piperidin-1-yl]methyl}-1-[(1-ethyl-1H-imidazol-5-yl)methyl]-1H-1,3-benzodiazole-6-carboxylic acid], with less than 50 nM; and `CCn1cncc1Cn1c(CN2CCC(Cc3cnc(COc4ccc(Cl)cc4C)o3)CC2)nc2ccc(C(=O)O)cc21` [Compound 141, 2-{[4-({2-[(4-chloro-2-methylphenoxy)methyl]-1,3-oxazol-5-yl}methyl)piperidin-1-yl]methyl}-1-[(1-ethyl-1H-imidazol-5-yl)methyl]-1H-1,3-benzodiazole-6-carboxylic acid], with less than 50 nM.
With `O=C(O)c1ccc2nc(CN3CCc4[nH]c5ccc(OCc6ccc(Cl)cc6Cl)cc5c4C3)n(C[C@@H]3CCO3)c2c1` [Compound 142, 2-({8-[(2,4-dichlorophenyl)methoxy]-1H,2H,3H,4H,5H-pyrido[4,3-b]indol-2-yl}methyl)-1-{[(2S)-oxetan-2-yl]methyl}-1H-1,3-benzodiazole-6-carboxylic acid], the 50% effective concentration (EC50) was greater than 500 nM.
For `CCn1cncc1Cn1c(CN2CCc3[nH]c4ccc(OCc5ccc(Cl)cc5Cl)cc4c3C2)nc2ccc(C(=O)O)cc21` [Compound 143, 2-({8-[(2,4-dichlorophenyl)methoxy]-1H,2H,3H,4H,5H-pyrido[4,3-b]indol-2-yl}methyl)-1-[(1-ethyl-1H-imidazol-5-yl)methyl]-1H-1,3-benzodiazole-6-carboxylic acid] the value was 50 to 500 nM; for `CCn1cncc1Cn1c(CN2CCC(Cc3cnc(COc4ncc(C5CC5)cc4Cl)o3)CC2)nc2ccc(C(=O)O)cc21` [Compound 144, 2-({4-[(2-{[(3-chloro-5-cyclopropylpyridin-2-yl)oxy]methyl}-1,3-oxazol-5-yl)methyl]piperidin-1-yl}methyl)-1-[(1-ethyl-1H-imidazol-5-yl)methyl]-1H-1,3-benzodiazole-6-carboxylic acid], less than 50 nM.
For the molecule `O=C(O)c1ccc2nc(CN3CCC(Cc4cccc(COc5ccc(Cl)cc5Cl)c4)CC3)n(C[C@H]3CCOC3)c2c1` [Compound 148, 2-{[4-({3-[(2,4-dichlorophenoxy)methyl]phenyl}methyl)piperidin-1-yl]methyl}-1-{[(3R)-oxolan-3-yl]methyl}-1H-1,3-benzodiazole-6-carboxylic acid], the 50% effective concentration (EC50) is less than 50 nM.
Regarding `O=C(O)c1ccc2nc(CN3CCC(Cc4cccc(COc5ccc(Cl)cc5Cl)c4)CC3)n(Cc3ncco3)c2c1` [Compound 149, 2-{[4-({3-[(2,4-dichlorophenoxy)methyl]phenyl}methyl)piperidin-1-yl]methyl}-1-[(1,3-oxazol-2-yl)methyl]-1H-1,3-benzodiazole-6-carboxylic acid], the concentration for a half-maximal effect (EC50) is less than 50 nM.
For `O=C(O)c1ccc2nc(CN3CCC(Cc4cccc(COc5ccc(Cl)cc5Cl)c4)CC3)n(C[C@@H]3CCCO3)c2c1` [Compound 151, 2-{[4-({3-[(2,4-dichlorophenoxy)methyl]phenyl}methyl)piperidin-1-yl]methyl}-1-{[(2S)-oxolan-2-yl]methyl}-1H-1,3-benzodiazole-6-carboxylic acid] the value was less than 50 nM; for `CCn1cncc1Cn1c(CN2CCC(Cc3cccc(COc4ccc(C5CC5)cc4Cl)n3)CC2)nc2ccc(C(=O)O)cc21` [Compound 153, 2-{[4-({6-[(2-chloro-4-cyclopropylphenoxy)methyl]pyridin-2-yl}methyl)piperidin-1-yl]methyl}-1-[(1-ethyl-1H-imidazol-5-yl)methyl]-1H-1,3-benzodiazole-6-carboxylic acid], less than 50 nM; for `CCn1cncc1Cn1c(CN2CCN(C(=O)c3cnc(COc4ccc(Cl)cc4Cl)o3)CC2)nc2ccc(C(=O)O)cc21` [Compound 156, 2-[(4-{2-[(2,4-dichlorophenoxy)methyl]-1,3-oxazole-5-carbonyl}piperazin-1-yl)methyl]-1-[(1-ethyl-1H-imidazol-5-yl)methyl]-1H-1,3-benzodiazole-6-carboxylic acid], less than 50 nM.
For `N#Cc1cc(Cl)ccc1OCc1cccc(CC2CCN(Cc3nc4ccc(C(=O)O)cc4n3C[C@H]3CCOC3)CC2)c1` [Compound 158, 2-{[4-({3-[(4-chloro-2-cyanophenoxy)methyl]phenyl}methyl)piperidin-1-yl]methyl}-1-{[(3R)-oxolan-3-yl]methyl}-1H-1,3-benzodiazole-6-carboxylic acid] the value was less than 50 nM; for `N#Cc1cc(Cl)ccc1OCc1cccc(CC2CCN(Cc3nc4ccc(C(=O)O)cc4n3Cc3ncco3)CC2)c1` [Compound 159, 2-{[4-({3-[(4-chloro-2-cyanophenoxy)methyl]phenyl}methyl)piperidin-1-yl]methyl}-1-[(1,3-oxazol-2-yl)methyl]-1H-1,3-benzodiazole-6-carboxylic acid], less than 50 nM.
